Results on 18 compounds are retold here after ChEMBL document CHEMBL4339210, “Synthesis and evaluation of histamine H3 receptor ligand based on lactam scaffold as agents for treating neuropathic pain” (Bioorg Med Chem Lett, 2019).

Activity calls are given as the source filed them. The rule behind the calls is not given here.

One series concerns the target Histamine H1 receptor (Cavia porcellus, UniProt P31389). Description: Displacement of [3H]-mepyramine from histamine H1 receptor in guinea pig cerebellum homogenates incubated for 60 mins by Cheng and Prusoff equation analysis by scintillation counting analysis. It is filed as tissue-based.
In a further series the target is Histamine H3 receptor (Rattus norvegicus, UniProt Q9QYN8). Description: Displacement of [3H]-N-alpha-methylhistamine from histamine H3 receptor in rat cerebral cortex homogenates incubated for 60 mins by Cheng and Prusoff equation analysis by scintillation counting analysis.
Series [1] deals with Rattus norvegicus. Description: Anti-nociceptive activity in Sprague-Dawley rat assessed as reduction in total time spent licking injected paw during early phase (0 to 5 mins) at 40 mg/kg, po dosed 1 hr before formalin injection. It is filed as functional, organism-based.
The test system of series [2] is Rattus norvegicus. Description: Anti-nociceptive activity in Sprague-Dawley rat assessed as reduction in total time spent licking injected paw during delayed phase (15 to 45 mins) at 40 mg/kg, po dosed 1 hr before formalin injection. It is filed as functional, organism-based.
Series [3] can be described thus: Acute toxicity in KM mouse assessed as effect on survival at 50 to 1000 mg/kg, po after 24 hrs. It is filed as organism-based. The settings on record: in vivo.
For series [4], the system named is Rattus norvegicus. Briefly: Anti-nociceptive activity in Sprague-Dawley rat assessed as reduction in total time spent licking injected paw during early phase (0 to 5 mins) at 1 to 10 mg/kg, po dosed 1 hr before formalin injection. It is filed as functional.
For series [5], the system named is Rattus norvegicus. Briefly: Anti-nociceptive activity in Sprague-Dawley rat assessed as reduction in total time spent licking injected paw during delayed phase (15 to 45 mins) at 1 to 10 mg/kg, po dosed 1 hr before formalin injection. It is filed as functional.
Series [6] concerns Rattus norvegicus. Description: Anti-nociceptive activity in Sprague-Dawley rat assessed as reduction in total time spent licking injected paw during early phase (0 to 5 mins) at 1 mg/kg, po dosed 1 hr before formalin injection. It is filed as functional, organism-based.
Series [7] relates to Rattus norvegicus. Description: Anti-nociceptive activity in Sprague-Dawley rat assessed as reduction in total time spent licking injected paw during delayed phase (15 to 45 mins) at 1 mg/kg, po dosed 1 hr before formalin injection. It is filed as functional, organism-based.

Chain of Histamine H1 receptor (P31389 whole entry): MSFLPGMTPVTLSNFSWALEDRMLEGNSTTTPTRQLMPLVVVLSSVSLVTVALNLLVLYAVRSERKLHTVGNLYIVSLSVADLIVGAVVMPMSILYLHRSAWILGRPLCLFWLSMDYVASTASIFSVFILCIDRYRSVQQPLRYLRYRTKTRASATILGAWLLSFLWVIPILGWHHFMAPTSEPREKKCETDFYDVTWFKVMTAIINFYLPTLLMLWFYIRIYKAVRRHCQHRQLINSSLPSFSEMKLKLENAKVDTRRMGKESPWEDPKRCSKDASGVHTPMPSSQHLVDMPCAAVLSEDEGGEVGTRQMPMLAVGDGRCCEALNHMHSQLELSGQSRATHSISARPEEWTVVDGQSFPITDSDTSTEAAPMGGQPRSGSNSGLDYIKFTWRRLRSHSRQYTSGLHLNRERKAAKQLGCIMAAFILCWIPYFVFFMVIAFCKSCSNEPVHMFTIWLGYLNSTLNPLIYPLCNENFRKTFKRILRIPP
Chain of Histamine H3 receptor (Q9QYN8 whole entry): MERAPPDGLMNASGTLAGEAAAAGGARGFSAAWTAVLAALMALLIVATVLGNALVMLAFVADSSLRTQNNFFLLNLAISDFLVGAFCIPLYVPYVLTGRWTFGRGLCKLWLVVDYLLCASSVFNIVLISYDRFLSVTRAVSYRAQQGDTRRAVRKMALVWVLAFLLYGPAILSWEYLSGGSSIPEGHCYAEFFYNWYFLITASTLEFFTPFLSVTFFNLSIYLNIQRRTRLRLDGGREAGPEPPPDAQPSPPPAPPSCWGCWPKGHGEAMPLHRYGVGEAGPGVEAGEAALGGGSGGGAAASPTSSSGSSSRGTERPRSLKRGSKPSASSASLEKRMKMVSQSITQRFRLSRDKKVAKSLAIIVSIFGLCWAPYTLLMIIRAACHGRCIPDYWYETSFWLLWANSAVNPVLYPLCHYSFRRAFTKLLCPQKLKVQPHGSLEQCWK

Regarding `CC1CCN(CCCOc2ccc3c(c2)C(=O)N(C)CC3)CC1`, the Ki on Histamine H1 receptor was determined as 32 nM; on Histamine H3 receptor, 279 nM. `CN1CCc2ccc(OCCCCN3CCOCC3)cc2C1=O` registered a Ki at Histamine H1 receptor of 856 nM. `CCN1CCc2ccc(OCCCN3CCOCC3)cc2C1=O`: affinity on Histamine H1 receptor was put at a Ki of 252 nM.

On Histamine H1 receptor, `CN1CCc2ccc(OCC(O)CN3CCOCC3)cc2C1=O` (stereo not drawn) returned a Ki of over 2000 nM. Consider `CCN1CCN(CCCOc2ccc3c(c2)C(=O)N(C)CC3)CC1`, for which, on Histamine H1 receptor, affinity was put at a Ki of 1100 nM. On to `CCN(CC)CCCOc1ccc2c(c1)C(=O)N(C)CC2`, for which the Ki on Histamine H1 receptor came out at 542 nM. Turning to `CC1CCCN1CCCOc1ccc2c(c1)C(=O)N(C)CC2` (stereo not drawn), the Ki came out at 26 nM at Histamine H1 receptor and 68 nM on Histamine H3 receptor. In the case of `CN1CCN(CCCOc2ccc3c(c2)C(=O)N(C)CC3)CC1`, the Ki on Histamine H1 receptor was 706 nM.

Compound `CN1CCc2ccc(OCCN3CCOCC3)cc2C1=O` displayed a Ki on Histamine H1 receptor of 1210 nM.

For `CC(C)C[C@H](CN)CC(=O)O`, the outcome in the series on Rattus norvegicus [1] and in the series on Rattus norvegicus [2] was Active. With `CN1CCc2ccc(OCCCN3CCOCC3)cc2C1=O`, the Ki is 6.5 nM on Histamine H1 receptor and 1030 nM at Histamine H3 receptor. In [3], the LD50 at 24 h was over 1000 mg/kg. The Activity entry in the series on Rattus norvegicus [4] and in the series on Rattus norvegicus [5] was “Dose-dependent effect” in each case. In addition, the values for the ED50 in the series with Rattus norvegicus [4] and in the series with Rattus norvegicus [5] were 1.3 mg/kg and 2.4 mg/kg, respectively.

Turning to `NC(=O)c1ccc(OCCCN2C[C@H]3CCC[C@H]3C2)cc1`, the inhibition constant Ki was 3.6 nM on Histamine H1 receptor and 426 nM on Histamine H3 receptor. Further, the outcome in the series on Rattus norvegicus [6] and with Rattus norvegicus [7] was Active.

As for `CN1CCc2ccc(OCCCN3CCCC3)cc2C1=O`, the values for the Ki at Histamine H1 receptor and at Histamine H3 receptor were 39 nM and 169 nM, respectively. With `CN1CCc2ccc(OCCCN3CCC(O)CC3)cc2C1=O`, the Ki on Histamine H1 receptor is 35 nM; on Histamine H3 receptor, 908 nM.

For `CN1CCc2ccc(OCCCN3CCCCC3)cc2C1=O`, the Ki on Histamine H1 receptor was 23 nM; on Histamine H3 receptor, 189 nM.

The compound `CC1CCCCN1CCCOc1ccc2c(c1)C(=O)N(C)CC2` (stereo not drawn) had a Ki on Histamine H1 receptor of 165 nM. `CN1CCc2ccc(OCCCN3CCC(=O)CC3)cc2C1=O` came in with a Ki at Histamine H1 receptor of 176 nM. This Ki and that of the compound before are within 1.5-fold of each other. Still for that read-out and setting: the value for `CN1CCc2ccc(OCCCN3CCC(O)C3)cc2C1=O` (stereo not drawn) was 112 nM.
